Experimental data from ChEMBL document CHEMBL2401728, “An unexpected Dimroth rearrangement leading to annelated thieno[3,2-d][1,2,3]triazolo[1,5-a]pyrimidines with potent antitumor activity” (Eur J Med Chem, 2013).

How the values were obtained:
Format in all cases: functional
[1] = system: HOP-92; experiment: Cytotoxicity against human HOP92 cells after 48 hrs by SRB assay; details: HOP-92, 48 h
[2] = system: SK-MEL-5; experiment: Cytotoxicity against human SK-MEL-5 cells assessed as cellular growth at 0.01 uM after 48 hrs by SRB assay relative to control
[3] = system: SNB-75; experiment: Cytotoxicity against human SNB75 cells assessed as cellular growth at 0.01 uM after 48 hrs by SRB assay relative to control
[4] = system: NCI-H522; experiment: Cytotoxicity against human NCI-H522 cells assessed as cellular growth at 0.01 uM after 48 hrs by SRB assay relative to control
[5] = system: NCI-H226; experiment: Cytotoxicity against human NCI-H226 cells after 48 hrs by SRB assay; details: NCI-H226, 48 h
[6] = system: M14; experiment: Cytotoxicity against human M14 cells assessed as cellular growth at 100 uM after 48 hrs by SRB assay relative to control
[7] = Cytotoxicity against human EKVX cells assessed as cellular growth at 0.01 uM after 48 hrs by SRB assay relative to control
[8] = system: Malme-3M; experiment: Cytotoxicity against human MALME-3M cells assessed as cellular growth at 1 uM after 48 hrs by SRB assay relative to control
[9] = system: 786-0; experiment: Cytotoxicity against human 786-0 cells assessed as cellular growth at 10 uM after 48 hrs by SRB assay relative to control
[10] = system: BT-549; experiment: Cytotoxicity against human BT549 cells after 48 hrs by SRB assay; details: BT-549, 48 h
[11] = system: DU-145; experiment: Cytotoxicity against human DU145 cells assessed as cellular growth at 0.1 uM after 48 hrs by SRB assay relative to control
[12] = system: SF-295; experiment: Cytotoxicity against human SF295 cells assessed as cellular growth at 1 uM after 48 hrs by SRB assay relative to control
[13] = system: TK-10; experiment: Cytotoxicity against human TK10 cells assessed as cellular growth at 0.1 uM after 48 hrs by SRB assay relative to control
[14] = system: SR; experiment: Cytotoxicity against human SR cells assessed as cellular growth at 1 uM after 48 hrs by SRB assay relative to control
[15] = system: OVCAR-8; experiment: Cytotoxicity against human OVCAR8 cells after 48 hrs by SRB assay; details: OVCAR-8, 48 h
[16] = system: SF-295; experiment: Cytotoxicity against human SF295 cells assessed as cellular growth at 0.1 uM after 48 hrs by SRB assay relative to control
[17] = Cytotoxicity against human NCI-ADR-RES cells after 48 hrs by SRB assay
[18] = system: KM12; experiment: Cytotoxicity against human KM12 cells after 48 hrs by SRB assay; details: KM12, 48 h
[19] = system: OVCAR-5; experiment: Cytotoxicity against human OVCAR5 cells assessed as cellular growth at 0.01 uM after 48 hrs by SRB assay relative to control
[20] = system: NCI-H322M; experiment: Cytotoxicity against human NCI-H322M cells assessed as cellular growth at 0.1 uM after 48 hrs by SRB assay relative to control
[21] = system: HCT-116; experiment: Cytotoxicity against human HCT116 cells after 48 hrs by SRB assay; details: HCT-116, 48 h
[22] = system: 786-0; experiment: Cytotoxicity against human 786-0 cells assessed as cellular growth at 0.1 uM after 48 hrs by SRB assay relative to control
[23] = system: SF-539; experiment: Cytotoxicity against human SF539 cells assessed as cellular growth at 100 uM after 48 hrs by SRB assay relative to control
[24] = system: Hs-578T; experiment: Cytotoxicity against human Hs578T cells assessed as cellular growth at 0.1 uM after 48 hrs by SRB assay relative to control
[25] = system: Malme-3M; experiment: Cytotoxicity against human MALME-3M cells after 48 hrs by SRB assay
[26] = system: NCI-H460; experiment: Cytotoxicity against human NCI-H460 cells after 48 hrs by SRB assay; details: NCI-H460, 48 h
[27] = system: COLO 205; experiment: Cytotoxicity against human COLO205 cells assessed as cellular growth at 0.1 uM after 48 hrs by SRB assay relative to control
[28] = system: NCI-H460; experiment: Cytotoxicity against human NCI-H460 cells assessed as cellular growth at 0.1 uM after 48 hrs by SRB assay relative to control
[29] = system: OVCAR-5; experiment: Cytotoxicity against human OVCAR5 cells after 48 hrs by SRB assay; details: OVCAR-5, 48 h
[30] = system: HOP-62; experiment: Cytotoxicity against human HOP62 cells assessed as cellular growth at 10 uM after 48 hrs by SRB assay relative to control
[31] = Cytotoxicity against human NCI-ADR-RES cells assessed as cellular growth at 0.01 uM after 48 hrs by SRB assay relative to control
[32] = system: MCF7; experiment: Cytotoxicity against human MCF7 cells assessed as cellular growth at 0.01 uM after 48 hrs by SRB assay relative to control
[33] = system: Hs-578T; experiment: Cytotoxicity against human Hs578T cells assessed as cellular growth at 1 uM after 48 hrs by SRB assay relative to control
[34] = system: HCT-15; experiment: Cytotoxicity against human HCT15 cells assessed as cellular growth at 100 uM after 48 hrs by SRB assay relative to control
[35] = read-out: LC50 (the source's name)
[36] = read-out: pLC50 (the source's name) (converted)

In the case of `CN1CCN(CCCn2c3c(sc4ncccc43)c(=O)n3nnc(-c4ccccc4)c23)CC1`, the GI50 ([1]; read-out: GI50) is reported as 6.31 µM, the CC50 [1, 35] is reported as 70.1 µM and the TGI ([1]; read-out: TGI) is reported as 24.3 µM. It also gave a GI50 ([1]; read-out: pGI50 (converted)) of 6.31 µM, a CC50 [1, 36] of 70.8 µM and a TGI ([1]; read-out: pTGI (converted)) of 24.5 µM. For the same compound, the Activity [2] was 96%, the Activity [3] was 76% and the Activity [4] was 96%. The GI50 ([5]; read-out: GI50) was 13.9 µM, the CC50 [5, 35] was 64.2 µM and the TGI ([5]; read-out: TGI) was 29.8 µM. It also gave a GI50 ([5]; read-out: pGI50 (converted)) of 13.8 µM, a CC50 [5, 36] of 64.6 µM and a TGI ([5]; read-out: pTGI (converted)) of 29.5 µM. It also gave an Activity [6] of -67%, an Activity [7] of 98% and an Activity [8] of 105%. For the same compound, the Activity [9] was -84%, the GI50 ([10]; read-out: GI50) was 14.7 µM and the LC50 (concentration killing 50% of cells) ([10]; read-out: LC50) was 63.9 µM. It also gave a TGI ([10]; read-out: TGI) of 30.7 µM, a GI50 ([10]; read-out: pGI50 (converted)) of 14.8 µM and an LC50 (concentration killing 50% of cells) ([10]; read-out: pLC50 (converted)) of 64.6 µM. For the same compound, the TGI ([10]; read-out: pTGI (converted)) was 30.9 µM, the Activity [11] was 98% and the Activity [12] was 103%. The Activity [13] was 99%, the Activity [14] was 104% and the GI50 ([15]; read-out: GI50) was 1.93 µM. For the same compound, the CC50 [15, 35] was > 100 µM, the TGI ([15]; read-out: TGI) was 4.49 µM and the GI50 ([15]; read-out: pGI50 (converted)) was 1.95 µM. The CC50 ([15]; read-out: pLC50 (converted)) was > 100 µM, the TGI ([15]; read-out: pTGI (converted)) was 4.47 µM and the Activity [16] was 94%. The GI50 ([17]; read-out: GI50) was 2.23 µM, the CC50 [17, 35] was 43.2 µM and the TGI ([17]; read-out: TGI) was 5.8 µM. For the same compound, the GI50 ([17]; read-out: pGI50 (converted)) was 2.24 µM, the CC50 [17, 36] was 43.7 µM and the TGI ([17]; read-out: pTGI (converted)) was 5.75 µM. The GI50 ([18]; read-out: GI50) was 1.73 µM, the CC50 [18, 35] was 6.71 µM and the TGI ([18]; read-out: TGI) was 3.41 µM. It also gave a GI50 ([18]; read-out: pGI50 (converted)) of 1.74 µM, a CC50 [18, 36] of 6.76 µM and a TGI ([18]; read-out: pTGI (converted)) of 3.39 µM. The Activity [19] was 105%, the Activity [20] was 80% and the GI50 ([21]; read-out: GI50) was 1.71 µM. The CC50 [21, 35] was 6.96 µM, the TGI ([21]; read-out: TGI) was 3.45 µM and the GI50 ([21]; read-out: pGI50 (converted)) was 1.7 µM. For the same compound, the CC50 [21, 36] was 6.92 µM, the TGI ([21]; read-out: pTGI (converted)) was 3.47 µM and the Activity [22] was 100%. It also gave an Activity [23] of -69%, an Activity [24] of 93% and a GI50 ([25]; read-out: GI50) of 1.97 µM. It also gave a CC50 [25, 35] of 6.72 µM, a TGI ([25]; read-out: TGI) of 3.64 µM and a GI50 ([25]; read-out: pGI50 (converted)) of 1.95 µM. The CC50 [25, 36] was 6.76 µM, the TGI ([25]; read-out: pTGI (converted)) was 3.63 µM and the GI50 ([26]; read-out: GI50) was 1.92 µM. It also gave a CC50 [26, 35] of 8.13 µM, a TGI ([26]; read-out: TGI) of 3.95 µM and a GI50 ([26]; read-out: pGI50 (converted)) of 1.91 µM. For the same compound, the CC50 [26, 36] was 8.13 µM, the TGI ([26]; read-out: pTGI (converted)) was 3.98 µM and the Activity [27] was 89%. For the same compound, the Activity [28] was 100%, the GI50 ([29]; read-out: GI50) was 2.69 µM and the CC50 [29, 35] was > 100 µM. For the same compound, the TGI ([29]; read-out: TGI) was 7.35 µM, the GI50 ([29]; read-out: pGI50 (converted)) was 2.69 µM and the CC50 [29, 36] was > 100 µM. The TGI ([29]; read-out: pTGI (converted)) was 7.41 µM, the Activity [30] was -90% and the Activity [31] was 96%. The Activity [32] was 91%, the Activity [33] was 96% and the Activity [34] was -69%.
